Data reported in patent EP0516034A1, “Pharmaceutical compositions with immunosuppresive properties” (FIDIA S.p.A., priority 1991, dated 1992).

Legend:
Format in all cases: cell-based, human
PBMC [1] = experiment: DNA synthesis ([3H]thymidine incorporation) in PHA-stimulated PBMC; settings: PBMC cultured 72 hours with PHA 1 µg/ml; for inhibition of DNA synthesis: result in words
Experimental: The PBMCs were obtained by standard density gradient centrifugation of heparinized human venous blood through a Ficoll-Hypaque cushion. The cells were composed of 90% lymphocytes and 10% monocytes as assessed by acridine orange staining.
DNA Synthesis. The cells were re-suspended in RPMI + 5% FCS and spread on 3072 Falcon microtiter plates at a density of 10⁵ cells in 0.2 ml of final volume. They were cultured for 72 hours at 37°C with PHA 1 µg/ml in the presence or absence of phospholipids. The cells were marked with 1 uCi/well of [³H]thymidine for the last 18 hours culture before being collected on filter paper and counted in a scintillation counter.

transferrin receptor = experiment: Flow cytometry of transferrin receptor expression on PHA-stimulated PBMC; settings: 72 hours, PHA 1 µg/ml, PS 60 nmol/10⁶ cells; PHA alone 54%
Experimental: (§1) To confirm the DNA synthesis parameter data obtained, a second lymphocyte activity parameter was analysed - the expression of the IL-2 and transferrin receptors on the cell membrane.
(§2) To this purpose, after incubation with PHA 1 µg/ml for 72 hours in the presence or absence of PS, the cells were stained with fluorescent monoclonal antibodies against the above receptor, and then analysed on a FAC Star (Beckton-Dickinson) flow cytometer equipped with an argon ion laser operating at 480 nm and 200 mw.
(§3) 10⁵ PBMC were cultured for 72 hours with PHA 1 µg/ml in the presence or absence of PS 60 nmol/10⁶ cells. Fluorescence intensity (receptor expression) and light diffusion (cell size) were measured using flow cytometry. The data are reported as percentage of cells located in the shown region.

PBMC [2] = experiment: Trypan blue exclusion test of cell viability; settings: PHA activated PBMC
Experimental: To exclude cytotoxic effect of used derivatives, cell viability (> 99%) was tested before, during, and after the incubation by the trypan blue exclusion test.

IL-2 receptor = experiment: Flow cytometry of IL-2 receptor expression on PHA-stimulated PBMC; settings: 72 hours, PHA 1 µg/ml, PS 60 nmol/10⁶ cells; PHA alone 77%
Experimental: as §1, §2, §3

With CCCCCCCC/C=C\CCCCCCCC(=O)OC[C@H](COP(=O)(O)OC[C@H](N)C(=O)O)OC(=O)CCCCCCC/C=C\CCCCCCCC [Dioleyl PS, dioleyl-PS] the “inhibition of DNA synthesis” value (PBMC [1]) was “same activity as PS containing L-serine”.

For CCCCCCCCCCCCCCCC(=O)OCC(COC(=O)CCCCCCCCCCCCCCC)OP(=O)(O)OC[C@H](N)C(=O)O [PS-S1, 1,3-dipalmitoylglycero-2-phosphoryl-L-serine, reference compound], the “inhibition of DNA synthesis” value (PBMC [1]) was “do not inhibit DNA synthesis, but slightly stimulate it”.

CCCCCCCC/C=C\CCCCCCCCOCC(COCCCCCCCC/C=C\CCCCCCCC)OP(=O)(O)OC[C@H](N)C(=O)O [PS-S10, 1,3-dioleylglycero-2-phosphoryl-L-serine] was tested, and the “inhibition of DNA synthesis” value (PBMC [1]) was “same activity as PS containing L-serine”.

For CCCCCCCCCCCCCC(=O)OC[C@H](COP(=O)(O)OC[C@H](N)C(=O)O)OC(=O)CCCCCCCCCCCCC [dimyristoyl PS, dimyristoyl-PS, reference compound], the “inhibition of DNA synthesis” value (PBMC [1]) was “do not inhibit DNA synthesis, but slightly stimulate it”.

CCCCCCCCCCCCCCCC(=O)OC[C@H](COP(=O)(O)OC[C@H](N)C(=O)O)OC(=O)CCCCCCCCCCCCCCC [dipalmitoyl PS, dipalmitoyl-PS, reference compound] was tested, and the “inhibition of DNA synthesis” value (PBMC [1]) was “do not inhibit DNA synthesis, but slightly stimulate it”.

For “phosphatidic acid [PA, reference compound]”, the “inhibition of DNA synthesis” value (PBMC [1]) was “totally inactive”.

For “phosphatidylcolin [PC, reference compound]”, the “inhibition of DNA synthesis” value (PBMC [1]) was “totally inactive”.

For “phosphatidylglycerol [PG, reference compound]”, the “inhibition of DNA synthesis” value (PBMC [1]) was “totally inactive”.

In the case of phosphatidylinositol [PI], the “inhibition of DNA synthesis” value (PBMC [1]) is reported as “active”.

phosphatidylserine [PS] was tested, and the “lymphocytes expressing transferrin receptors” value (transferrin receptor) was 20%, the Cell viability (PBMC [2]) was “not affected” and the IC50 (PBMC [1]; corresponds to 30 nmol PS/10⁶ cells, read-out: 50% of the maximum effect, concentration of PS in the medium) was 15 µM. The “50% of the maximum effect (inhibition of DNA synthesis)” value (PBMC [1]; phospholipid as liposomes) was 30 nmol/10⁶ cells, the “inhibition of DNA synthesis” value (PBMC [1]) was “marked inhibition” and the “lymphocytes expressing IL-2 receptors” value (IL-2 receptor) was 15%.
